Laboratory results published in PubChem BioAssay AID1963825 (Molecular Pharmacology Branch, DTP, NCI, 2024).
pIC50: −log10 of the molar value.

Test: Anticancer human tumor 997537-175-T-J1-PDC patient-derived colon adenocarcinoma cell line growth inhibition [POLQ]
Conditions: 997537-175-T-J1-PDC complex spheroid viability, combination with POLQ inhibitors; for pIC50: curve of first compound; for viability, T/C: stronger effect = lower value
Procedure, shortened: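 Patient-derived tumour cells were co-cultured with HUVEC and mesenchymal stem cells as multicellular spheroids at 37 °C. They were treated with POLQ inhibitors (novobiocin, ART-558, RP6685) alone or combined with other agents. Top concentrations were at or near clinical Cmax (otherwise 10 microM; SN-38 at 1 microM), decreasing in half-log steps.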

[1] = second compound 0.0316 µM, first compound 0.0316 µM
[2] = second compound 0.0316 µM, first compound 0.1 µM
[3] = second compound 0.1 µM, first compound 0.0316 µM
[4] = second compound 0.1 µM, first compound 0.1 µM
[5] = second compound 0.316 µM, first compound 0.0316 µM
[6] = second compound 0.316 µM, first compound 0.1 µM
[7] = second compound 1 µM, first compound 0.0316 µM
[8] = second compound 1 µM, first compound 0.1 µM
[9] = second compound 3.16 µM, first compound 0.0316 µM
[10] = second compound 3.16 µM, first compound 0.1 µM
[11] = second compound 10 µM, first compound 0.0316 µM
[12] = second compound 10 µM, first compound 0.1 µM
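Note: luminescence signal used as a surrogate for viable cells; spheroids exposed to drugs for seven days before readout.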

SMILES: CC1COCCN1c1cc(C2(S(C)(=N)=O)CC2)nc(-c2ccnc3[nH]ccc23)n1 (centres undefined) + Nc1ccc(C#CCN(C(=O)Cc2ncc(C(F)(F)F)cc2C(F)(F)F)c2ccc(F)cc2)nn1
- pIC50 (second compound 0.0316 µM): < 5.00
- pIC50 (second compound 0.1 µM): 5.12
- pIC50 (second compound 0.316 µM): < 5.00
- pIC50 (second compound 1 µM): < 5.00
- pIC50 (second compound 3.16 µM): 5.19
- pIC50 (second compound 10 µM): < 5.00
- viability, T/C [1]: 115%
- viability, T/C [2]: 107%
- viability, T/C (second compound 0.0316 µM, first compound 0.316 µM): 86.7%
- viability, T/C (second compound 0.0316 µM, first compound 1 µM): 96.5%
- viability, T/C (second compound 0.0316 µM, first compound 3.16 µM): 87.1%
- viability, T/C (second compound 0.0316 µM, first compound 10 µM): 57.2%
- viability, T/C [3]: 105%
- viability, T/C [4]: 105%
- viability, T/C (second compound 0.1 µM, first compound 0.316 µM): 81.3%
- viability, T/C (second compound 0.1 µM, first compound 1 µM): 95.4%
- viability, T/C (second compound 0.1 µM, first compound 3.16 µM): 65.5%
- viability, T/C (second compound 0.1 µM, first compound 10 µM): 43.9%
- viability, T/C [5]: 109%
- viability, T/C [6]: 103%
- viability, T/C (second compound 0.316 µM, first compound 0.316 µM): 97.5%
- viability, T/C (second compound 0.316 µM, first compound 1 µM): 79.2%
- viability, T/C (second compound 0.316 µM, first compound 3.16 µM): 79.4%
- viability, T/C (second compound 0.316 µM, first compound 10 µM): 71.7%
- viability, T/C [7]: 97.8%
- viability, T/C [8]: 108%
- viability, T/C (second compound 1 µM, first compound 0.316 µM): 105%
- viability, T/C (second compound 1 µM, first compound 1 µM): 81%
- viability, T/C (second compound 1 µM, first compound 3.16 µM): 63.9%
- viability, T/C (second compound 1 µM, first compound 10 µM): 52%
- viability, T/C [9]: 93.9%
- viability, T/C [10]: 91.2%
- viability, T/C (second compound 3.16 µM, first compound 0.316 µM): 107%
- viability, T/C (second compound 3.16 µM, first compound 1 µM): 92.4%
- viability, T/C (second compound 3.16 µM, first compound 3.16 µM): 66.9%
- viability, T/C (second compound 3.16 µM, first compound 10 µM): 40%
- viability, T/C [11]: 94.9%
- viability, T/C [12]: 94.6%
- viability, T/C (second compound 10 µM, first compound 0.316 µM): 94.6%
- viability, T/C (second compound 10 µM, first compound 1 µM): 81.7%
- viability, T/C (second compound 10 µM, first compound 3.16 µM): 47%
- viability, T/C (second compound 10 µM, first compound 10 µM): 55.8%

SMILES: Cn1ncnc1[C@H]1c2n[nH]c(=O)c3cc(F)cc(c23)N[C@@H]1c1ccc(F)cc1 + Nc1ccc(C#CCN(C(=O)Cc2ncc(C(F)(F)F)cc2C(F)(F)F)c2ccc(F)cc2)nn1
- pIC50 (second compound 0.0316 µM): < 7.00
- pIC50 (second compound 0.1 µM): < 7.00
- pIC50 (second compound 0.316 µM): < 7.00
- pIC50 (second compound 1 µM): < 7.00
- pIC50 (second compound 3.16 µM): < 7.00
- pIC50 (second compound 10 µM): < 7.00
- viability, T/C (second compound 0.0316 µM, first compound 0.000316 µM): 98.8%
- viability, T/C (second compound 0.0316 µM, first compound 0.001 µM): 97.4%
- viability, T/C (second compound 0.0316 µM, first compound 0.00316 µM): 104%
- viability, T/C (second compound 0.0316 µM, first compound 0.01 µM): 94.5%
- viability, T/C [1]: 98.1%
- viability, T/C [2]: 103%
- viability, T/C (second compound 0.1 µM, first compound 0.000316 µM): 103%
- viability, T/C (second compound 0.1 µM, first compound 0.001 µM): 114%
- viability, T/C (second compound 0.1 µM, first compound 0.00316 µM): 99.2%
- viability, T/C (second compound 0.1 µM, first compound 0.01 µM): 104%
- viability, T/C [3]: 95.7%
- viability, T/C [4]: 99%
- viability, T/C (second compound 0.316 µM, first compound 0.000316 µM): 100%
- viability, T/C (second compound 0.316 µM, first compound 0.001 µM): 110%
- viability, T/C (second compound 0.316 µM, first compound 0.00316 µM): 95.6%
- viability, T/C (second compound 0.316 µM, first compound 0.01 µM): 106%
- viability, T/C [5]: 95.3%
- viability, T/C [6]: 93.9%
- viability, T/C (second compound 1 µM, first compound 0.000316 µM): 105%
- viability, T/C (second compound 1 µM, first compound 0.001 µM): 90.5%
- viability, T/C (second compound 1 µM, first compound 0.00316 µM): 89.4%
- viability, T/C (second compound 1 µM, first compound 0.01 µM): 99.4%
- viability, T/C [7]: 120%
- viability, T/C [8]: 90.5%
- viability, T/C (second compound 3.16 µM, first compound 0.000316 µM): 101%
- viability, T/C (second compound 3.16 µM, first compound 0.001 µM): 103%
- viability, T/C (second compound 3.16 µM, first compound 0.00316 µM): 86.4%
- viability, T/C (second compound 3.16 µM, first compound 0.01 µM): 95.3%
- viability, T/C [9]: 104%
- viability, T/C [10]: 99.2%
- viability, T/C (second compound 10 µM, first compound 0.000316 µM): 95.4%
- viability, T/C (second compound 10 µM, first compound 0.001 µM): 102%
- viability, T/C (second compound 10 µM, first compound 0.00316 µM): 98.6%
- viability, T/C (second compound 10 µM, first compound 0.01 µM): 91.3%
- viability, T/C [11]: 103%
- viability, T/C [12]: 106%
